The record followed here is ChEMBL document CHEMBL1132033, “Stabilization of microtubules by Combretastatin D derivatives” (Bioorg Med Chem Lett, 1999).

Molecules are shown by their SMILES. pIC50: −log10 of the molar value.

The test system of one test is 1A9. The test can be described thus: Inhibitory activity against Taxol resistant 1A9 cell lines. The following applies: Homo sapiens. The class given is functional, cell-based.
The test system of a further test is 1A9/ptx-10. The test is described as follows: Inhibitory activity against Taxol resistant PTX10 cell lines. The class given is functional, cell-based. Conditions: Homo sapiens.
In the next test the test system is 1A9/ptx-22. The test is described as follows: Inhibitory activity against Taxol resistant PTX22 cell lines. The class given is functional, cell-based. Conditions: Homo sapiens.
In test [1] the target is Tubulin alpha chain (Sus scrofa) (UniProt P02550). The test is described as follows: Inhibitory activity against tubulin polymerization at 0.25 mM concentration. The class given is functional.
Test [2] has the same target. The test is described as follows: Inhibitory activity against tubulin polymerization at 0.5 mM concentration. In kind it is functional.
Test [3] shares this target. The test can be described thus: Inhibitory activity against tubulin polymerization at 1.0 mM concentration. The class given is functional.
For test [4] the target is unchanged. The test is described as follows: Inhibitory activity against tubulin polymerization at 2.0 mM concentration. In kind it is functional.

Sequence of Tubulin alpha chain (Sus scrofa) (P02550 whole entry, looked up): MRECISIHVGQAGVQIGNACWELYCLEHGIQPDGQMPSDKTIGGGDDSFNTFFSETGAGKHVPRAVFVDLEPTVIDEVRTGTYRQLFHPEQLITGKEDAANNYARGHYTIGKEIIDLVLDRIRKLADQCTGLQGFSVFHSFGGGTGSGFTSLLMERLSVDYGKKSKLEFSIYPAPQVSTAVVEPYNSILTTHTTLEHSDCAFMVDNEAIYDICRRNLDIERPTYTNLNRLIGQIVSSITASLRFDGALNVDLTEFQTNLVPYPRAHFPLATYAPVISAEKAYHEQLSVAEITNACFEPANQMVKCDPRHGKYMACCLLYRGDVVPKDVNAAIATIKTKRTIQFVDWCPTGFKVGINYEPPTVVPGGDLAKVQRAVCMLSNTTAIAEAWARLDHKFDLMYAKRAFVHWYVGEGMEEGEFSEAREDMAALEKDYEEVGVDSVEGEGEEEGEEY

On to `COc1ccc2cc1Oc1ccc(cc1)CC(O)COC(=O)CC2` (configuration not stated), for which the negative logarithm of the IC50 (pIC50) in the test on 1A9, in the test on 1A9/ptx-10 and with 1A9/ptx-22 was less than 5.60 throughout. Further, the inhibition came out at 27% in test [1], 47% in test [2], 62% in test [3] and 76% in test [4].
For `COc1c(Br)cc2cc1Oc1ccc(cc1)CC(O)COC(=O)CC2` (configuration not stated), the pIC50 in the test with 1A9, in the test on 1A9/ptx-10 and in the test with 1A9/ptx-22 was less than 5.60 each time. The inhibition worked out at 3% in test [1], 21% in test [2], 39% in test [3] and 67% in test [4].
On to `COc1ccc2cc1Oc1ccc(cc1)C1OC1COC(=O)CC2` (configuration not stated), for which the pIC50 in the test on 1A9, with 1A9/ptx-10 and with 1A9/ptx-22 was less than 5.60 each time. The inhibition in test [1] was determined as 0%; in test [2] it was 20%; in test [3], 27%; in test [4] it was 39%.
For the compound `COc1ccc2cc1Oc1ccc(cc1)/C=C\COC(=O)CC2`, the negative logarithm of the IC50 (pIC50) in the test on 1A9, in the test on 1A9/ptx-10 and in the test on 1A9/ptx-22 was less than 5.60 each time. Besides, the inhibition in test [1] worked out at 16%; in test [2], 19%; in test [3], 27%; in test [4], 35%.
`COc1ccc2cc1Oc1ccc(cc1)CC(I)COC(=O)CC2` (configuration not stated): the pIC50 in the test on 1A9, in the test on 1A9/ptx-10 and in the test with 1A9/ptx-22 was less than 5.60 each time. The inhibition came out at 5% in test [1], 28% in test [2], 35% in test [3] and 54% in test [4].
For the compound `COc1cc2c(c(OC)c1OC)-c1ccc(OC)c(=O)cc1[C@@H](NC(C)=O)CC2` [COLCHICINE], the pIC50 in the test on 1A9, with 1A9/ptx-10 and in the test on 1A9/ptx-22 was less than 5.60 throughout. Moreover, the inhibition in test [1] is 4%; in test [2] it was 3%; in test [3], 4%; in test [4], 0%.
